Measured values reported in patent US4582839A, “2,4-thiazolidinediones” (Takeda Chemical Industries, Ltd., priority 1985, dated 1986).
Like-named read-outs stand apart in the source and are kept apart here.

Legend:
[1] = Acute oral toxicity (LD50) in rat; conditions: in vivo, administered orally
Method: With reference to the method of administration, they are normally usable orally for example in the form of tablets, capsules, powders, granules, etc., but can also be administered parenterally in the form of injectable solutions, suppositories, pellets, etc., as the case may be. In the case of their being employed as a therapeutic agent for diabetes, they can be normally administered orally in daily doses of 0.05 mg to 10 mg/kg or parenterally in daily doses of 0.01 mg to 10 mg/kg, per adult human, and in the case of their being utilized as a therapeutic agent for hyperlipemia, they can be normally given orally in daily doses of 0.05 mg to 10 mg/kg or parenterally in daily doses of 0.01 mg to 10 mg/kg, per adult human, whereby it is desirable to administer such quantities once daily or intermittently twice to four times weekly.

KKAy mice = assay: Blood sugar- and lipid-lowering activity in mice (test compound 0.005% in diet, 4 days); format: in vivo; conditions: Mus musculus, feed or water, 96 h, 0.005% in powder diet, male KKAy mice
Method: Blood sugar- and lipid-lowering activity in mice.
0.005% of a test compound was mixed with a powder diet (CE-2, produced by CLEA JAPAN), and KKAy mice (male, 8 to 10 weeks of age, 5 mice/group) were placed on the diet for 4 days, and allowed free access to water throughout the experiment. Blood samples were taken from the orbital veins and assayed for blood sugar by the glucose oxidase method and for plasma triglyceride by the enzyme method in which the produced glycerol was determined by means of Cleantech TG-S Kit (Yatron), respectively. The respective values are expressed in terms of rate of lowering (%) from the values of control group not receiving the test compound.

[2] = enzyme method (Cleantech TG-S Kit), read-out: Hypolipemic activity (rate of lowering of plasma triglyceride from control group)
[3] = glucose oxidase method, read-out: Hypoglycemic activity (rate of lowering of blood sugar from control group)

Structure (SMILES) | LD50 [1] [mg/kg] | inhibition in vivo at 0.005 %, 0.005 % in diet (KKAy mice; [2]) [%] | inhibition in vivo at 0.005 %, 0.005 % in diet (KKAy mice; [3]) [%]
CCc1ccc(C(CO)COc2ccc(CC3SC(=O)NC3=O)cc2)nc1 (stereo not shown) [5-{4-[2-(5-ethyl-2-pyridyl)-3-hydroxypropoxy]benzyl}-2,4-thiazolidinedione] | ≥ 5000 | – | –
Cc1cccc(C(O)COc2ccc(CC3SC(=O)NC3=O)cc2)n1 (stereo not shown) [Example 1, 5-{4-[2-hydroxy-2-(6-methyl-2-pyridyl)ethoxy]benzyl}-2,4-thiazolidinedione] | ≥ 5000 | 47 | 45
Cc1cccnc1C(CO)COc1ccc(CC2SC(=O)NC2=O)cc1 (stereo not shown) [Example 2, 5-{4-[3-hydroxy-2-(3-methyl-2-pyridyl)propoxy]-benzyl}-2,4-thiazolidinedione] | ≥ 5000 | 11 | 22
CCc1ccc(C(O)COc2ccc(CC3SC(=O)NC3=O)cc2)nc1 (stereo not shown) [Example 3, 5-{4-[2-(5-ethyl-2-pyridyl)-2-hydroxyethoxy]benzyl}-2,4-thiazolidinedione] | ≥ 5000 | 35 | 32
CCc1ccc(C(CO)COc2ccc(CC3SC(=O)NC3=O)cc2)nc1 (stereo not shown) [Example 4, 5-{4-[2-(5-ethyl-2-pyridyl)-3-hydroxypropoxy]benzyl}-2,4-thiazolidinedione] | – | 38 | 45
CC(=O)OC(COc1ccc(CC2SC(=O)NC2=O)cc1)c1cccc(C)n1 (stereo not shown) [Example 5, 5-{4-[2-acetoxy-2-(6-methyl-2-pyridyl)ethoxy]benzyl}-2,4-thiazolidinedione] | ≥ 5000 | – | –
CCc1ccc(C(COC(C)=O)COc2ccc(CC3SC(=O)NC3=O)cc2)nc1 (stereo not shown) [Example 6, 5-{4-[3-acetoxy-2-(5-ethyl-2-pyridyl)propoxy]benzyl}-2,4-thiazolidinedione] | ≥ 5000 | – | –
Cc1cccnc1C(O)COc1ccc(CC2SC(=O)NC2=O)cc1 (stereo not shown) [Example 7, 5-{4-[2-Hydroxy-2-(3-methyl-2-pyridyl)ethoxy]benzyl}-2,4-thiazolidinedione] | – | 58 | 53
O=C1NC(=O)C(Cc2ccc(OCC(O)c3ccccn3)cc2)S1 (stereo not shown) [Example 8, 5-{4-[2-Hydroxy-2-(2-pyridyl)ethoxy]benzyl}-2,4-thiazolidinedione] | – | 53 | 47
Cc1ccc(C(O)COc2ccc(CC3SC(=O)NC3=O)cc2)nc1 (stereo not shown) [Example 9, 5-{4-[2-Hydroxy-2-(5-methyl-2-pyridyl)ethoxy]benzyl}-2,4-thiazolidinedione] | – | 19 | 35
Cc1cc(C)nc(C(O)COc2ccc(CC3SC(=O)NC3=O)cc2)c1 (stereo not shown) [Example 10, 5-{4-[2-(4,6-dimethyl-2-pyridyl)-2-hydroxyethoxy]benzyl}-2,4-thiazolidinedione] | – | 47 | 40
